Data from patent publication US6420362B1, “Azines containing the 5,6-di-hydro-(1,4,2) dioxazine-3-yl group and the use thereof as fungicides” (priority 1997, dated 2002).

Assay: log P determination by HPLC (EEC Directive 79/831 Annex V. A8)
Format: physicochemical
Method: The log P values were determined in accordance with EEC Directive 79/831 Annex V. A8 by HPLC (gradient method, acetonitrile/0.1% strength aqueous phosphoric acid).

chromatographic logP	SMILES
3.17	CON=C(C)C(C)=NN=Cc1ccccc1C(=NOC)C1=NOCCO1 [Example 4, 3-({2-[(5,6-dihydro-[1,4,2]dioxazin-3-yl)-methoxyimino-methyl]-benzylidene}-hydrazono)-butan-2-one O-methyl oxime]
3.92	CON=C(C(C)=NN=Cc1ccccc1/C(=N/OC)C1=NOCCO1)C(C)C [Example 12]
3.8	CON=C(C1=NOCCO1)c1ccccc1C=NN=C(C)c1cccc(C(F)(F)F)c1 [Example 1, (5,6-dihydro-[1,4,2]dioxazin-3-yl)-(2-{[1-(3-trifluoromethylphenyl)-ethylidene]-hydrazonomethyl}-phenyl)-methanone O-methyl oxime]
3.61	CCON=C(C)C(C)=NN=Cc1ccccc1C(=NOC)C1=NOCCO1 [Example 17]
3.58	CCC(=NOC)C(C)=NN=Cc1ccccc1/C(=N/OC)C1=NOCCO1 [Example 13]
3.8	CON=C(C1=NOCCO1)c1ccccc1C=NN=C(C)c1ccc(C(F)(F)F)cc1 [Example 2, (5,6-dihydro-[1,4,2]dioxazin-3-yl)-(2-{[1-(4-trifluoromethylphenyl)-ethylidene]-hydrazonomethyl}-phenyl)-methanone O-methyl oxime]
